Laboratory results from patent publication US9427458B2, “Methods for inhibiting cancer cell proliferation” (Consejo Nacional de Investigaciones Cientificas y Tecnicas, …, priority 2010, dated 2016).
“Also recorded” adds a separate entry of the source.

Key:
Stat3 [1] = assay: Stat3 phosphorylation and nuclear translocation in C4HD cells; type: cell-based, mouse
Procedure: (§1) Lysates were prepared from cells subjected to the different treatments and proteins were subjected to SDS-PAGE as previously described (21). Membranes were immunoblotted with the antibodies detailed in each experiment. When phospho(p)-protein antibodies were used, filters were reprobed with total protein antibodies. Signal intensities of pErbB-2, pStat3, pSrc, pPR, pJak1, and pJak2 bands were analyzed by densitometry and normalized to total protein bands. Similarly, signal intensities of PR, cyclin D1, Stat3, and ErbB-2 bands were normalized to actin or β tubulin bands. […] The NEPER Nuclear and Cytoplasmic Extraction Reagents technique (Pierce Biotechnology) was performed as per manufacturer's instructions. Nuclear association between ErbB-2 and Stat3 was studied by performing coimmunoprecipitation experiments using 200 μg of nuclear protein lysates as described (22).
siRNAs targeting ErbB-2, Stat3, and Pr were synthesized by Dharmacon, Inc (Lafayatte, Colo.) (ErbB-2siRNA: 5′GAUGGUGCUUACUCAUUGA3′ (SEQ ID NO:8), designed to specifically knockdown mouse ErbB2 but not human ErbB-2; Stat3siRNA: 5′[…]3′ (SEQ ID NO:9) targets mouse Stat3; and 5′[…]3′ (SEQ ID NO:10) targets human Stat3; PRsiRNA: 5′[…]3′(SEQ ID NO:11)). […] Transfection of siRNAs duplexes was performed by using the DharmaFECT transfection reagent following the manufacturer's direction for 3 days. For reconstitution experiments cotransfection of 25 nM ErbB-2 siRNA with 2 μg expression vectors was performed using DharmaFECT Duo transfection reagent (Dharmacon).
(§2) Cells grown on glass coverslips were fixed and permeabilized in ice-cold methanol and were then blocked with PBS 1% BSA. ErbB-2 was localized using either a rabbit polyclonal (C-18) or a mouse monoclonal (F-11) ErbB-2 antibody (Santa Cruz Biotechnology) and Stat3 was detected using a mouse monoclonal antibody (124H6, Cell Signaling), followed by incubation with a goat anti-rabbit IgG-Alexa 488 (Molecular Probes, Eugene, Oreg.) secondary antibody for ErbB-2 (C-18) and with a rhodamine conjugated goat anti-mouse secondary antibody (Jackson ImmunoResearch Laboratories, West Grove, Pa.) for both ErbB2 (F-11) and Stat3. Negative controls were carried out using PBS instead of primary antibodies, or 5× competitive peptide (Santa Cruz Biotechnology) when ErbB-2 (C-18) was used. When cells were transfected with hErbB-2ΔNLS, green fluorescent protein from this expression vector was visualized by direct fluorescence imaging. […] FIGS. 2A, 3B and C, illustrate a few cells representative of the ones examined. Cells were analyzed using a Nikon Eclipse E800 confocal laser microscopy system (22).

Stat3 [2] = assay: m67 Stat3 binding site luciferase reporter in C4HD cells; type: cell-based, mouse; conditions: cotransfection
Source text: (§3) The luciferase reporter plasmid downstream the cyclin D1 human promoter region (−1745 cyclin D1-luc), and constructs truncated at positions −963, −261, −141, were kindly provided by Dr. R. Pestell (Northwestern University Medical School, Chicago, Ill.). These constructs were generated by truncation of the 1745-bp length promoter in order to sequentially exclude 5′ regions of the promoter. The −963 cyclin D1-luc construct excludes one GAS site (−984), the −261 cyclin D1-luc excludes three GAS sites (−984, −568 and −475) and the −141 cyclin D1-luc excludes four GAS sites (−984, −568, −475 and −239). The empty vector pA3 Luc was also provided by Dr. R. Pestell. The luciferase reporter plasmid containing four copies of the m67 high-affinity binding site (p4×m67-tk-luc) and the pTATA-tk-Luc reporter lacking the m67 insertion were a gift from Dr J. Darnell (The Rockefeller University, New York, N.Y.). The Renilla luciferase expression plasmid RLCMV was obtained from Promega (Madison, Wis.). […] Triplicate samples were analyzed for each datum point. Differences between experimental groups were analyzed by ANOVA followed by Tukey test between groups.

Stat3 [3] = assay: m67 Stat3 binding site luciferase reporter in T47D cells; type: cell-based, human; conditions: cotransfection
Source text: as §3

cyclin D1 promoter = assay: Human cyclin D1 promoter luciferase reporter in C4HD cells; type: cell-based, mouse
Source text: The luciferase reporter plasmid downstream the cyclin D1 human promoter region (−1745 cyclin D1-luc), and constructs truncated at positions −963, −261, −141, were kindly provided by Dr. R. Pestell (Northwestern University Medical School, Chicago, Ill.). These constructs were generated by truncation of the 1745-bp length promoter in order to sequentially exclude 5′ regions of the promoter. The −963 cyclin D1-luc construct excludes one GAS site (−984), the −261 cyclin D1-luc excludes three GAS sites (−984, −568 and −475) and the −141 cyclin D1-luc excludes four GAS sites (−984, −568, −475 and −239). The empty vector pA3 Luc was also provided by Dr. R. Pestell. The luciferase reporter plasmid containing four copies of the m67 high-affinity binding site (p4×m67-tk-luc) and the pTATA-tk-Luc reporter lacking the m67 insertion were a gift from Dr J. Darnell (The Rockefeller University, New York, N.Y.). The Renilla luciferase expression plasmid RLCMV was obtained from Promega (Madison, Wis.). Dominant negative Stat3 expression vector, Stat3Y705-F, which carries a tyrosine to phenylalanine substitution at codon 705 that reduces phosphorylation on tyrosine of the wild-type Stat3 protein, therefore inhibiting both dimerization and DNA binding of Stat3 (6,7,16) was kindly provided by Dr J. Darnell (New York, USA). The empty pcDNA3.1 vector was also a gift of Dr J. Darnell. Human wild-type ErbB-2 expression vector (hErbB-2WT) as well as the empty pMe18SM vector were a gift from by Dr. T. Yamamoto (University of Tokyo, Japan) (1). The GFP-tagged human ErbB-2 mutant which lacks the putative nuclear localization signal sequence (aa 676-KRRQQKIRKYTMRR-689) (SEQ ID NO:3), resulting in the sequence of KLM at the deletion junction (hErbB-2ΔNLS), was generously provided by Dr. M. C. Hung (The University of Texas M.D. Anderson Cancer Center, Houston, Tex.) (Giri et al., 2005). The empty pEGFP-N1 vector was obtained from BD Biosciences Clontech (Palo Alto, Calif.). The plasmid encoding the human wild-type hPR-B was kindly provided by Dr. K. Horwitz. In experiments assessing MPA capacity to induce the transcriptional activation of Stat3, C4HD and T47D cells were transiently transfected for 48 h with 1 μg of −1745 cyclin D1-luc reporter plasmid or the truncated −963, −261 and −141 constructs, or with 1 μg p4×m67-tk-luc and 10 ng of RL-CMV used to correct variations in transfection efficiency. As control, cells were transfected with 1 μg of either the pA3 Luc or pTATA-tk-Luc reporters. Cells were cotransfected with 2 μg of Stat3Y705-F when indicated. Total amount of transfected DNA was standardized by adding the empty pcDNA3.1 vector. […] Triplicate samples were analyzed for each datum point. Differences between experimental groups were analyzed by ANOVA followed by Tukey test between groups.

ErbB-2 [4] = assay: ErbB-2 cellular localization (subcellular fractionation/immunoblot, confocal microscopy) in T47D cells; type: cell-based, human; conditions: T47D cells pretreated with inhibitor before MPA
Procedure: (§4) Lysates were prepared from cells subjected to the different treatments and proteins were subjected to SDS-PAGE as previously described (21). Membranes were immunoblotted with the antibodies detailed in each experiment. When phospho(p)-protein antibodies were used, filters were reprobed with total protein antibodies. Signal intensities of pErbB-2, pStat3, pSrc, pPR, pJak1, and pJak2 bands were analyzed by densitometry and normalized to total protein bands. Similarly, signal intensities of PR, cyclin D1, Stat3, and ErbB-2 bands were normalized to actin or β tubulin bands. […]
(§5) Cells grown on glass coverslips were fixed and permeabilized in ice-cold methanol and were then blocked with PBS 1% BSA. ErbB-2 was localized using either a rabbit polyclonal (C-18) or a mouse monoclonal (F-11) ErbB-2 antibody (Santa Cruz Biotechnology) and Stat3 was detected using a mouse monoclonal antibody (124H6, Cell Signaling), followed by incubation with a goat anti-rabbit IgG-Alexa 488 (Molecular Probes, Eugene, Oreg.) secondary antibody for ErbB-2 (C-18) and with a rhodamine conjugated goat anti-mouse secondary antibody (Jackson ImmunoResearch Laboratories, West Grove, Pa.) for both ErbB2 (F-11) and Stat3. […] When cells were transfected with hErbB-2ΔNLS, green fluorescent protein from this expression vector was visualized by direct fluorescence imaging. […]

Stat3 [5] = assay: Stat3 phosphorylation and nuclear translocation in T47D cells; type: cell-based, human; conditions: T47D cells pretreated with inhibitor before MPA
Procedure: as §1, §2

ErbB-2 [6] = assay: ErbB-2 tyrosine phosphorylation by Western blot in T47D cells; type: cell-based, human; conditions: T47D cells preincubated with inhibitor before MPA
Procedure: (§6) Primary cultures of epithelial cells from C4HD tumors were performed as described (2). T47D cells were obtained from American Type Culture Collection and T47D-Y cells were a generous gift from Dr. K. Horwitz (Denver, Colo.). To evaluate the effects of the pharmacological inhibitors on MPA-induced proteins phosphorylation or cyclin D1 expression, cells were preincubated for 90 min with RU486, PP2, Tyrphostin AG825 or Jak inhibitor I before addition of MPA. Cell proliferation was evaluated by [3H]-thymidine incorporation assay and cell cycle distribution was analyzed by flow cytometry, as described (22).
as §1

ErbB-2 [7] = assay: ErbB-2 tyrosine phosphorylation by Western blot in C4HD cells; type: cell-based, mouse; conditions: C4HD cells preincubated with inhibitor or transfected with siRNA before MPA
Procedure: as §6
as §1, with “Nuclear association between ErbB-2 and Stat3 was studied by performing coimmunoprecipitation experiments using 200 μg of nuclear protein lysates as described (22).” left out

ErbB-2 [8] = assay: ErbB-2 cellular localization (subcellular fractionation/immunoblot, confocal microscopy) in C4HD cells; type: cell-based, mouse; conditions: C4HD cells pretreated with inhibitor before MPA
Procedure: as §4, §5

5′GAUGGUGCUUACUCAUUGA3′ (other strand missing, further chemistry not given here) [ErbB-2 siRNAs, siRNA designed to specifically knockdown mouse ErbB2 but not human ErbB-2]
MPA-induced Stat3 phosphorylation (Stat3 [1]; C4HD cells transfected with siRNAs to knock down mouse ErbB-2): inhibited

hErbB-2WT: Human wild-type ErbB-2 expression vector
MPA-induced Stat3 transcriptional activation (m67 reporter) (Stat3 [2]): significantly enhanced
MPA-induced Stat3 transcriptional activation (m67 reporter) (Stat3 [3]): significantly enhanced
basal levels of Stat3 transcriptional activity (cyclin D1 promoter; absence of MPA): did not modulate
MPA-induced cyclin D1 promoter activation (cyclin D1 promoter; pretreatment or cotransfection, MPA 24 h): significantly enhanced
Stat3 Tyr705 phosphorylation upon MPA stimulation (Stat3 [1]; Transfected C4HD cells versus wild-type C4HD cells also stimulated with MPA): higher levels

COc1cc(/C=C(\C#N)C(N)=O)cc(CSc2nc3ccccc3s2)c1O [AG825]
MPA-induced ErbB-2 nuclear translocation (ErbB-2 [4]): abrogated; also recorded: significantly inhibited
MPA-induced Stat3 nuclear migration (Stat3 [5]): absolutely prevented
MPA-induced ErbB-2 phosphorylation (ErbB-2 [6]): prevented
MPA-induced Stat3 nuclear migration (Stat3 [1]; C4HD cells pretreated with inhibitor before MPA): absolutely prevented
MPA-induced ErbB-2 phosphorylation (ErbB-2 [7]): prevented
MPA-induced ErbB-2 nuclear translocation (ErbB-2 [8]): abrogated; also recorded: significantly inhibited
